Data on one compound can be found in article PMC9911596 (Nature Communications, 2023).

For the experiment, the target named is T1, Vtc1/Vtc3/Vtc4 complex (VTC complex) (Saccharomyces cerevisiae, UniProt P47075+Q02725).
T1 construct: full-length subunits co-expressed in Expi293F; Vtc1 C-terminal HA, Vtc3 N-terminal 3xFlag, Vtc4 C-terminal 2xStrep; detergent-purified; 3:1:1 pentamer; with Vacuolar transporter chaperone complex subunit 1
T1 sequence (P47075 1-721): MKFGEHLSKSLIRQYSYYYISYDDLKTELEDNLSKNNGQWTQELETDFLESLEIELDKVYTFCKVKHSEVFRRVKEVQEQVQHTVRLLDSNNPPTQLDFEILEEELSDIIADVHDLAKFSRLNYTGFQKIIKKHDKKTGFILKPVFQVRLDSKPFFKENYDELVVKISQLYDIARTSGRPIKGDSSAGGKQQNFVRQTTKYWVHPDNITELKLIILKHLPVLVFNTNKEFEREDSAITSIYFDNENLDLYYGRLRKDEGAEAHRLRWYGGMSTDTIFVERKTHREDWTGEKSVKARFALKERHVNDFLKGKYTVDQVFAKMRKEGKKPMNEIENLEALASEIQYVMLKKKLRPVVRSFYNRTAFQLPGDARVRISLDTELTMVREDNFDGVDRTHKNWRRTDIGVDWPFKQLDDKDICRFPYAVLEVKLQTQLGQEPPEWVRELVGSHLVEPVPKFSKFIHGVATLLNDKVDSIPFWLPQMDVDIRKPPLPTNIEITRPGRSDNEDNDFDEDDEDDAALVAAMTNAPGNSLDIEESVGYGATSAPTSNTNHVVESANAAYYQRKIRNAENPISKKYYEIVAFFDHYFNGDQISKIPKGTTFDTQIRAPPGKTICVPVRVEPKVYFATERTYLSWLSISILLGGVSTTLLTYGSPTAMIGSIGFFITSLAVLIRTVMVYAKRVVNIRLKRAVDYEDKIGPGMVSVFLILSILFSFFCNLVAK
T1 sequence (Q02725 1-835): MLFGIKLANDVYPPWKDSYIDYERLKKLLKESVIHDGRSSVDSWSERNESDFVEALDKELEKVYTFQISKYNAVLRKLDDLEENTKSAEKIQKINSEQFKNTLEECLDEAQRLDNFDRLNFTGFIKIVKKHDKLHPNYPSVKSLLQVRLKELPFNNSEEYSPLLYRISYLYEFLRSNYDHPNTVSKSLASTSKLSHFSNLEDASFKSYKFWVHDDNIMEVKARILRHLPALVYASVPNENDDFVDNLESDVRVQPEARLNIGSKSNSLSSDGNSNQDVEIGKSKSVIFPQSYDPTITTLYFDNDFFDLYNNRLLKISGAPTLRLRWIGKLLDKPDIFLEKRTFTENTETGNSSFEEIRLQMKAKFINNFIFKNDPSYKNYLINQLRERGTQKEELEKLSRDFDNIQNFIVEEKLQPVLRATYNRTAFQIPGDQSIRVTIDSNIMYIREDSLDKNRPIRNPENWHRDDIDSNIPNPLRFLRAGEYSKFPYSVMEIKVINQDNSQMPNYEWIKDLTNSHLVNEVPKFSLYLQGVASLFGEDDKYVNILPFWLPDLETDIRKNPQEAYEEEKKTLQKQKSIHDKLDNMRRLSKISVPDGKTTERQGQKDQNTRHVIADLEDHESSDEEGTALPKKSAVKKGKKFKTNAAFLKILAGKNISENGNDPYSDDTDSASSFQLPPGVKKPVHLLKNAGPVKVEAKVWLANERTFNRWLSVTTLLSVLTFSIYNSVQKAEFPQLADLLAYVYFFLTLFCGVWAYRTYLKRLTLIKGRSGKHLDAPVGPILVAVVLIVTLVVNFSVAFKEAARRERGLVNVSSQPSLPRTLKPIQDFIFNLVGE
T1 sequence (P40046 22-129 partner): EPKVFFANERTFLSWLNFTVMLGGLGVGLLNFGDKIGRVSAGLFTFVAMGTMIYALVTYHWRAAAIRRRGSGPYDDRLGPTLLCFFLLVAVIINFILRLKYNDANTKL
The experiment in a line: polyP synthesis, TBE-PAGE; smFRET. The format is biochemical. The note with it: 1 mM InsP6; activator; deletion of Vtc1 N-terminus.

Structures are written as SMILES.

As for `O=P(O)(O)O[C@H]1[C@H](OP(=O)(O)O)[C@@H](OP(=O)(O)O)[C@H](OP(=O)(O)O)[C@@H](OP(=O)(O)O)[C@H]1OP(=O)(O)O` [InsP6], the “polyP synthesis, TBE-PAGE; smFRET” value is given as “mutant VTC complex that can no longer be activated by the InsP6 stimulus”.
